According to article PMC10384246, “Discovery of New Uracil and Thiouracil Derivatives as Potential HDAC Inhibitors” (Pharmaceuticals, 2023):
Values joined by “and” are separate entries in the source; they are usually repeats but may differ in a detail not shown here. Equal entries are not always repeated.

Assays:
[1] = system: HepG2 (human liver carcinoma cell line); experiment: MTT anti-proliferative assay, HepG2; type: cell-based; conditions: HepG2, mean of at least three experiments, read-out: Cytotoxicity IC50 HepG-2
Experimental: (§1) Sorafenib was used as a reference drug.
(§2) Anti-proliferative activity activities were tested using MTT assay as described in Supplementary Materials. […]
(§3) S2.1. In vitro anti-proliferative activities
(§4) The in vitro antiproliferative activities of all the synthesized compounds against three human tumor cell lines namely, MCF-7 (human breast cancer cell line), HepG2 (human liver […]
(§5) in the literature, using MTT assay protocol. Sorafenib was used in this test as a positive control.
(§6) The anti-proliferative activity was assessed quantitatively as follows.
(§7) Human cancer cell lines were seeded in 96-well plates at a density of 3-8 × 10^3 cells/well.
(§8) Next, the cells were incubated for 12 h in a 5% CO2 incubator at 37 °C. Then, for each well, the growth medium was exchanged with 0.1 ml of fresh medium containing graded concentrations of the test compounds or equal DMSO. Then 10 μl MTT solution ([…]) was added to each well, and the cells were incubated for additional 4 h. The crystals of MTT-formazan were dissolved in 100 μl of DMSO; the absorbance of each well was measured at 490 nm using an automatic ELISA reader system (TECAN, CHE). The IC50 values were calculated using the nonlinear regression fitting models (Graph Pad, Prism Version 5). The data represented the mean of three independent experiments in triplicate and were expressed as means ± SD. The IC50 value was […]
(§9) defined as the concentration at which 50% of the cells could survive. […]

HDAC4 = HDAC4 (Homo sapiens, UniProt P56524); experiment: In vitro HDAC4 inhibitory assay; type: biochemical
Chain of HDAC4 (P56524 whole entry): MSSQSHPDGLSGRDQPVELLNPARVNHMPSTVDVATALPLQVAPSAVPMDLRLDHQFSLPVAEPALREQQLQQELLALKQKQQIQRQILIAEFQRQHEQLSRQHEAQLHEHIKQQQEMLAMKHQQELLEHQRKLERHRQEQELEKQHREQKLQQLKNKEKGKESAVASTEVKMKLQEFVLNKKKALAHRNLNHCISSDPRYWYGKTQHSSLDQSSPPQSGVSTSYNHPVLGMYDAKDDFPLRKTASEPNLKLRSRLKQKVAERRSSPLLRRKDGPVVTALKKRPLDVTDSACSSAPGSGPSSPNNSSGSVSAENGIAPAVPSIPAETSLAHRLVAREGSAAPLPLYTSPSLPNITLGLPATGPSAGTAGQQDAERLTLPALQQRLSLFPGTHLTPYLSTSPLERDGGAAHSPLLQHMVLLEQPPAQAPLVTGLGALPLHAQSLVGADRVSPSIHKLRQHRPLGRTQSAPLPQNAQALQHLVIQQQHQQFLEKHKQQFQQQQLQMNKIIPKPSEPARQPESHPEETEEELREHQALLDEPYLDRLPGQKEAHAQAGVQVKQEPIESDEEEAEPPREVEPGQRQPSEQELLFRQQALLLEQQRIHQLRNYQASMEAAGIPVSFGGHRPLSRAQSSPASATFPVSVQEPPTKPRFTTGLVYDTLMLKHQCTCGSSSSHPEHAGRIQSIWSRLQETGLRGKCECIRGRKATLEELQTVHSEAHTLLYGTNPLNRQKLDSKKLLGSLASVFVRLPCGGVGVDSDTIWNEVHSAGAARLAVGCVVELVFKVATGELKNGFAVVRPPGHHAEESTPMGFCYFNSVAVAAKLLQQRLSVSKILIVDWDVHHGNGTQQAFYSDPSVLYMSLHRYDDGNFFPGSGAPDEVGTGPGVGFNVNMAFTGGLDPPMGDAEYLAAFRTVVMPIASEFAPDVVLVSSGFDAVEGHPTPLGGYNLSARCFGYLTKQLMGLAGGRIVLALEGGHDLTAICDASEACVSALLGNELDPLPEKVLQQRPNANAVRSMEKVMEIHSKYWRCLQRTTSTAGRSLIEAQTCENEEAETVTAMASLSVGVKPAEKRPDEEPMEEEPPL

[2] = system: MCF-7 (human breast cancer cell line); experiment: MTT anti-proliferative assay, MCF-7; type: cell-based; conditions: MCF7, MCF-7, mean of at least three experiments, read-out: Cytotoxicity IC50 MCF-7
Experimental: as §1, §2, §3, §4, §5, §6, §7, §8, §9

HDAC1 = HDAC1 (Homo sapiens, UniProt Q13547); experiment: In vitro HDAC1 inhibitory assay; type: biochemical
Chain of HDAC1 (Q13547 whole entry): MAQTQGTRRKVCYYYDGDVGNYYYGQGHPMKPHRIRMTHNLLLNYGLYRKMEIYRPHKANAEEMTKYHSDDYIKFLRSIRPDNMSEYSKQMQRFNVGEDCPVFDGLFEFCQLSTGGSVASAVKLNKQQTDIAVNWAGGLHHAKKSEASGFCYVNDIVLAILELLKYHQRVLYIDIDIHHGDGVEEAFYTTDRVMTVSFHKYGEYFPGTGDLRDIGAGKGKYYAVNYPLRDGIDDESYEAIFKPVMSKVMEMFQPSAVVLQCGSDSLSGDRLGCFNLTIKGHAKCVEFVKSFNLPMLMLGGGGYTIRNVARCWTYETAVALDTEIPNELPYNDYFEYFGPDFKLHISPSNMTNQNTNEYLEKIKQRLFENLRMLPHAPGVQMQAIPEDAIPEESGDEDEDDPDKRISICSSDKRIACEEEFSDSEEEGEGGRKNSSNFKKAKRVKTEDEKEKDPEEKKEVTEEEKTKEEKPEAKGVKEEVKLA

[3] = system: colorectal carcinoma (HCT-116); experiment: MTT anti-proliferative assay, HCT-116; type: cell-based; conditions: Homo sapiens, HCT-116, read-out: Cytotoxicity IC50 HCT-116
Experimental: as §1, §2, §3, §4, §5, §6, §7, §8, §9

HCT-116 cells [4] = experiment: Flow cytometry cell cycle analysis; type: cell-based, human; conditions: 78 µM, 72 h, share of cells in phase
Experimental: The effect of the most promising compound, 5m, against the cell cycle was tested in HCT116 cells.
Cell cycle analysis was performed for compound 5m as described in Supplementary Materials. […]
defined as the concentration at which 50% of the cells could survive. The results were expressed […]
S2.2. In-vitro DNA-Flow cytometric (cell cycle) analysis. […]
h. Then, the tested cells were collected by trypsinization and washed in PBS. Ice - cold absolute ethanol was used for fixation of the collected cells. The cells were stained with Cycle TESTTM PLUS DNA Reagent Kit (BD Biosciences, San Jose, CA) accord ing to the manufacturer's instructions. Cell -cycle distribution was evaluated using a flow cytometer.
(§10) S2.3. Annexin V - FITC apoptosis assay.
(§11) To detect the apoptosis induced by compound 5m , HCT-116 cells were seeded and incubated overnight and then treated with compound 5m at concentrations of 78 µM for 72 h. DMSO was chosen as the negative control. After that, the cells were collected and washed with PBS two successive times with centrifugation. Apoptosis detection kit (BD Biosciences, San Jose, CA) was used in this test. According to the manufacturer's protocol the cells were stained by Annexin V-FITC and propidium iodide (PI) in the binding b uffer for 20min at room temperature in the dark. Using a flow cytometer, Annexin V-FITC and PI binding were analyzed. Flowjo software was used to analyze the frequencies in all quadrants.
(§12) S2.4. Apoptotic effect of compound 5m treatment. […]
(§13) cells treated with compound 5m. […]

caspase-8 = experiment: qRT-PCR caspase-8 level; type: cell-based, human; conditions: HCT-116 cells, 72 h, versus untreated cells
Experimental: (§14) Quantitative Real Time Reverse-Transcriptase PCR technique (determination of caspase-3
(§15) The total RNA was extracted from the control and treated cells by using RNeasy mini kit
(§16) (Qiagen, Germany) according the manufacturer's protocol. Then, the isolated RNAs were
(§17) quantitatively and qualitatively assessed using a NanoDrop®1000 spectrophotometer (Thermo
(§18) Scientific, Wilmington, DE, USA). The RNA aliquots were preserved at - 80 °C till the next
(§19) Reverse transcription and quantification of caspase-3 and caspase-8 mRNA
expressions using qRT-PCR:
(§20) iScriptTM One-Step RT-PCR Kit with SYBR® Green kit (BIORAD Laboratories, USA) was used
(§21) for reverse transcription of total RNA and quantification of the targeted mRNA expressions in
(§22) single reaction tube. In depth, the complementary DNA (cDNA) was performed efficiently from
(§23) the isolated RNA using iScriptTM MMLV (Moloney Murine Leukemia Virus) reverse
(§24) transcriptase. While, the relative expression levels of caspase -3 and caspase-8 mRNA were
(§25) determined using 2X SYBR® Green RT -PCR Reaction Mix, containing iTaq TM DNA polymerase
(§26) and SYBR® Green I dye, on the basis of the manufacturer’s guidelines. GAPDH was used as
(§27) housekeeping gene for data normalization. The reaction Mix consisted of 10 μL of 2X SYBR®
(§28) Green RT-PCR Reaction Mix, 1 μl of forward primer, 1 μl of reverse primer, 1 μl of iScript […]
(§29) were determined by using the 2- ΔΔct method.

HCT-116 cells [5] = experiment: Annexin-V/propidium iodide apoptosis assay; type: cell-based, human; conditions: 78 µM, 72 h
Experimental: The tested cells were subjected to 78 µM from compound 5m with an incubation time of 72 h.
The apoptotic effect of the compound 5m was tested as described in Supplementary data. Quantitative Real-Time Reverse-Transcriptase PCR (qRT-PCR) technique Using qRT-PCR, the effect of compound 5m on the expression of cleaved caspase-3 and caspase-8 was determined (Supplementary Materials). […]
as §10, §11, §12, §13

in vitro = conditions: human
caspase-3 = experiment: qRT-PCR caspase-3 level; type: cell-based, human; conditions: HCT-116 cells, 72 h, versus untreated cells
Experimental: as §14, §15, §16, §17, §18, §19
expressions using qRT-PCR:
as §20, §21, §22, §23, §24, §25, §26, §27, §28, §29

Molecule `CCCn1c(N)c(C(c2ccc(Cl)cc2Cl)c2c(N)n(CCC)c(=O)[nH]c2=O)c(=O)[nH]c1=O` [Compound 5k, 5,5′-((2,4-Dichlorophenyl)methylene)bis(6-amino-1-propylpyrimidine-2,4(1H,3H)-dione)] has an IC50 [1] of 5 ± 2 µM, a melting point of 285 to 286 °C and an IC50 (HDAC4) of 13 µM. It also gave an IC50 [2] of 242 ± 2 µM, an IC50 (HDAC1) of 0.464 µM and an IC50 [3] of 80 ± 2.6 µM.

`CCn1c(N)c(C(c2ccccc2)c2c(N)n(CC)c(=S)[nH]c2=O)c(=O)[nH]c1=S` [Compound 5a, 5,5′-(Phenylmethylene)bis(6-amino-1-ethyl-2-thioxo-2,3-dihydropyrimidin-4(1H)-one)] showed an IC50 [1] of 39 ± 2.5 µM, a melting point greater than 300 °C and an IC50 (HDAC4) of 12.2 µM. It also gave an IC50 [2] of 11 ± 1.6 µM, an IC50 (HDAC1) of 3.11 µM and an IC50 [3] of 88 ± 2.4 µM.

With `CCCn1c(N)c(C(c2ccc(Cl)cc2)c2c(N)n(CCC)c(=O)[nH]c2=O)c(=O)[nH]c1=O` [Compound 5m, 5,5′-((4-Chlorophenyl)methylene)bis(6-amino-1-propylpyrimidine-2,4(1H,3H)-dione)] the IC50 [1] was 3.3 ± 0.56 µM, the “%G0–G1” value (HCT-116 cells [4]) was 55.31% and the “%G2/M” value (HCT-116 cells [4]) was 9.81%. The “%S” value (HCT-116 cells [4]) was 34.88%, the melting point was 257 to 258 °C and the “RT-PCR (Fold Change) Caspase-8” value (caspase-8) was 2.5 Fold Change and 2.655 Fold Change. The “Apoptotic effect, times/fold compared to control cells” value (HCT-116 cells [5]; 37.59% versus 2.17% in control) was roughly 17, the “DNA Content (%) Early (early apoptosis)” value (HCT-116 cells [5]; Annexin-V/PI) was 22.36% and the “DNA Content (%) Late (late apoptosis)” value (HCT-116 cells [5]; Annexin-V/PI) was 13.14%. For the same molecule, the “DNA Content (%) Total (apoptotic effect)” value (HCT-116 cells [5]; Annexin-V/PI) was 37.59%, the Necrosis (HCT-116 cells [5]; Annexin-V/PI) was 2.09 and the IC50 (HDAC4) was 6.14 µM. For the same molecule, the IC50 [2] was 52 ± 3.5 µM, the IC50 (HDAC1) was 0.108 µM and the IC50 (in vitro) was 65.7 ± 1.7 µM. The “RT-PCR (Fold Change) Caspase-3” value (caspase-3) was 5 Fold Change and 4.891 Fold Change and the IC50 [3] was 78 ± 2 µM.

With `CCCn1c(N)c(C(c2ccc(C)cc2)c2c(N)n(CCC)c(=O)[nH]c2=O)c(=O)[nH]c1=O` [Compound 5j, 5,5′-(p-Tolylmethylene)bis(6-amino-1-propylpyrimidine-2,4(1H,3H)-dione)] the IC50 [1] was 38 ± 1.8 µM, the melting point was 286 to 287 °C and the IC50 [2] was 71 ± 2 µM. The IC50 [3] was 400 ± 2.4 µM.

With `CCn1c(=S)[nH]c(=O)c2c(-c3cccs3)c3c(=O)[nH]c(=S)n(CC)c3nc21` [Compound 7c, 1,9-Diethyl-5-(thiophen-2-yl)-2,8-dithioxo-2,3,8,9-tetrahydropyrido[2,3-d:6,5-d′]dipyrimidine-4,6(1H,7H)-dione] the IC50 [1] was 221 ± 2.5 µM, the melting point was 216 to 217 °C and the IC50 [2] was 450 ± 2.2 µM. The IC50 [3] was 243 ± 2.2 µM.

For `CCn1c(N)c(C(c2ccc([N+](=O)[O-])cc2)c2c(N)n(CC)c(=S)[nH]c2=O)c(=O)[nH]c1=S` [Compound 5f, 5,5′-((4-Nitrophenyl)methylene)bis(6-amino-1-ethyl-2-thioxo-2,3-dihydropyrimidin-4(1H)-one)], the IC50 [1] was 49 ± 0.17 µM, the melting point was 274 to 275 °C and the IC50 (HDAC4) was 12.2 µM. It also gave an IC50 [2] of 9.3 ± 3.4 µM, an IC50 (HDAC1) of 4 µM and an IC50 [3] of 71 ± 2.1 µM.

In the case of `CCn1c(N)c(C(c2ccc(C)cc2)c2c(N)n(CC)c(=S)[nH]c2=O)c(=O)[nH]c1=S` [Compound 5b, 5,5′-(p-Tolylmethylene)bis(6-amino-1-ethyl-2-thioxo-2,3-dihydropyrimidin-4(1H)-one)], the IC50 [1] is reported as 51 ± 4 µM, the melting point is reported as 239 to 240 °C and the IC50 (HDAC4) is reported as 18 µM. It also gave an IC50 [2] of 55 ± 2.8 µM, an IC50 (HDAC1) of 2.27 µM and an IC50 [3] of 21 ± 2.4 µM.

Molecule `CCn1c(N)c(C(c2ccc(Cl)cc2)c2c(N)n(CC)c(=S)[nH]c2=O)c(=O)[nH]c1=S` [Compound 5c, 5,5′-((4-Chlorophenyl)methylene)bis(6-amino-1-ethyl-2-thioxo-2,3-dihydropyrimidin-4(1H)-one)] has an IC50 [1] of 89 ± 2.4 µM, a melting point greater than 300 °C and an IC50 [2] of 77 ± 2.3 µM. It also gave an IC50 [3] of 97 ± 1.2 µM.

With `CCCn1c(N)c(C(c2ccccc2)c2c(N)n(CCC)c(=O)[nH]c2=O)c(=O)[nH]c1=O` [Compound 5i, 5,5′-(Phenylmethylene)bis(6-amino-1-propylpyrimidine-2,4(1H,3H)-dione)] the IC50 [1] was 4 ± 1 µM, the melting point was 294 to 295 °C and the IC50 (HDAC4) was 19.5 µM. For the same molecule, the IC50 [2] was 261 ± 2.5 µM, the IC50 (HDAC1) was 0.342 µM and 0.352 µM and the IC50 [3] was 64 ± 2.1 µM.

For `CCn1c2c(c(=O)[nH]c1=S)C(c1ccccc1)c1c(n(CC)c(=S)[nH]c1=O)N2` [Compound 6a, 1,9-Diethyl-5-phenyl-2,8-dithioxo-2,3,5,8,9,10-hexahydropyrido[2,3-d:6,5-d′]dipyrimidine-4,6(1H,7H)-dione], the IC50 [1] was 220 ± 3 µM, the melting point was 255 to 256 °C and the IC50 [2] was 333 ± 2.9 µM. For the same molecule, the IC50 [3] was 291 ± 3.5 µM.
